# Key:
# [1] = test system: M. intracellularae ATCC 15984; experiment: MIC, agar (7H11) dilution method; type: cell-based
# E. faecalis ATCC 29212 = experiment: MIC, other bacteria (Table 3); type: cell-based; conditions: inoculum size 10^6 CFU/ml
# MRSE 2442-05060 = experiment: MIC, other bacteria (Table 3); type: cell-based, S. epidermidis; conditions: inoculum size 10^6 CFU/ml
# M. smegmatis Takeo = experiment: MIC, agar (7H11) dilution method; type: cell-based
# M. aurum = experiment: MIC, agar (7H11) dilution method; type: cell-based
# M. avium Flamingo = experiment: MIC, agar (7H11) dilution method; type: cell-based
# MRSA 2441-05104 = experiment: MIC, other bacteria (Table 3); type: cell-based, S. aureus; conditions: inoculum size 10^6 CFU/ml
# M. kansasii NIHJ1619 = experiment: MIC, agar (7H11) dilution method; type: cell-based
# M. fortuitum NIHJ1615 = experiment: MIC, agar (7H11) dilution method; type: cell-based
# MRSA 2441-05254 = experiment: MIC, other bacteria (Table 3); type: cell-based, S. aureus; conditions: inoculum size 10^6 CFU/ml
# [2] = test system: E. faecium NCTC 12203 (VRE); experiment: MIC, other bacteria (Table 3); type: cell-based; conditions: high level VCM-resistant, Van A, inoculum size 10^6 CFU/ml
# VRSA 2441-T0041 = experiment: MIC, other bacteria (Table 3); type: cell-based, S. aureus; conditions: VRSA 2441-T0041, low level VCM-resistant; inoculum size 10^6 CFU/ml
# MRSA 2441-05129 = experiment: MIC, other bacteria (Table 3); type: cell-based, S. aureus; conditions: inoculum size 10^6 CFU/ml
# [3] = test system: S. epidermidis ATCC 12228; experiment: MIC, other bacteria (Table 3); type: cell-based; conditions: inoculum size 10^6 CFU/ml
# [4] = test system: S. aureus ATCC 43300 (MRSA); experiment: MIC, other bacteria (Table 3); type: cell-based; conditions: inoculum size 10^6 CFU/ml
# E. coli ATCC 25922 = experiment: MIC, other bacteria (Table 3); type: cell-based; conditions: inoculum size 10^6 CFU/ml
# S. aureus ATCC 29213 = experiment: MIC, other bacteria (Table 3); type: cell-based; conditions: inoculum size 10^6 CFU/ml
# [5] = test system: E. faecalis NCTC 12201 (VRE); experiment: MIC, other bacteria (Table 3); type: cell-based; conditions: high level VCM-resistant, Van A, inoculum size 10^6 CFU/ml
# MRSA 2441-05112 = experiment: MIC, other bacteria (Table 3); type: cell-based, S. aureus; conditions: inoculum size 10^6 CFU/ml
# M. tuberculosis Kurono = experiment: MIC, agar (7H11) dilution method; type: cell-based; conditions: M. tuberculosis Kurono; agar (7H11) dilution
# MRSE 2442-05118 = experiment: MIC, other bacteria (Table 3); type: cell-based, S. epidermidis; conditions: inoculum size 10^6 CFU/ml
# K. pneumoniae ATCC 27736 = experiment: MIC, other bacteria (Table 3); type: cell-based; conditions: inoculum size 10^6 CFU/ml
# MRSE 2442-05030 = experiment: MIC, other bacteria (Table 3); type: cell-based, S. epidermidis; conditions: inoculum size 10^6 CFU/ml
# M. tuberculosis H37Rv = experiment: MIC, agar (7H11) dilution method; type: cell-based; conditions: M. tuberculosis H37Rv
# MRSA 2441-05223 = experiment: MIC, other bacteria (Table 3); type: cell-based, S. aureus; conditions: inoculum size 10^6 CFU/ml
# P. aeruginosa ATCC 27853 = experiment: MIC, other bacteria (Table 3); type: cell-based; conditions: inoculum size 10^6 CFU/ml
# S. marsascens ATCC 14756 = experiment: MIC, other bacteria (Table 3); type: cell-based; conditions: inoculum size 10^6 CFU/ml
# MRSE 2442-05047 = experiment: MIC, other bacteria (Table 3); type: cell-based, S. epidermidis; conditions: inoculum size 10^6 CFU/ml
# MRSE 2442-05053 = experiment: MIC, other bacteria (Table 3); type: cell-based, S. epidermidis; conditions: inoculum size 10^6 CFU/ml
# E. faecium ATCC 49224 = experiment: MIC, other bacteria (Table 3); type: cell-based; conditions: E. faecium ATCC 49224, GM-resistant; inoculum size 10^6 CFU/ml
# VRSA 2441-T0044 = experiment: MIC, other bacteria (Table 3); type: cell-based, S. aureus; conditions: VRSA 2441-T0044, low level VCM-resistant; inoculum size 10^6 CFU/ml
# P. mirabilis ATCC 4630 = experiment: MIC, other bacteria (Table 3); type: cell-based; conditions: inoculum size 10^6 CFU/ml
# MRSE 2442-05110 = experiment: MIC, other bacteria (Table 3); type: cell-based, S. epidermidis; conditions: inoculum size 10^6 CFU/ml
# MRSA 2441-05262 = experiment: MIC, other bacteria (Table 3); type: cell-based, S. aureus; conditions: inoculum size 10^6 CFU/ml
# [6] = test system: E. faecalis ATCC 51299 (VRE); experiment: MIC, other bacteria (Table 3); type: cell-based; conditions: low level VCM-resistant, Van B, inoculum size 10^6 CFU/ml
# M. bovis BCG Tokyo = experiment: microbe, parasite or virus in culture; type: cell-based; conditions: M. bovis BCG Tokyo; agar (7H11) dilution
smiles,measurement,setting,value
C=CCN(C)CCCCCCCCOc1ccc(C(=O)c2ccc(Cl)cc2)c(Cl)c1 [Cpd #20],Minimum inhibitory concentrations (MIC),[1],12.5 mg/L
same,MIC,E. faecalis ATCC 29212,12.5 mg/L
same,MIC,MRSE 2442-05060,12.5 mg/L
same,Minimum inhibitory concentrations (MIC),M. smegmatis Takeo,25 mg/L
same,Minimum inhibitory concentrations (MIC),M. aurum,12.5 mg/L
same,Minimum inhibitory concentrations (MIC),M. avium Flamingo,12.5 mg/L
same,MIC,MRSA 2441-05104,25 mg/L
same,Minimum inhibitory concentrations (MIC),M. kansasii NIHJ1619,12.5 mg/L
same,Minimum inhibitory concentrations (MIC),M. fortuitum NIHJ1615,>25 mg/L
same,MIC,MRSA 2441-05254,25 mg/L
same,MIC,[2],12.5 mg/L
same,MIC,VRSA 2441-T0041,50 mg/L
same,MIC,MRSA 2441-05129,25 mg/L
same,MIC,[3],25 mg/L
same,MIC,[4],25 mg/L
same,MIC,E. coli ATCC 25922,>100 mg/L
same,MIC,S. aureus ATCC 29213,25 mg/L
same,MIC,[5],12.5 mg/L
same,MIC,MRSA 2441-05112,25 mg/L
same,Minimum inhibitory concentrations (MIC),M. tuberculosis Kurono,6.25 mg/L
same,MIC,MRSE 2442-05118,12.5 mg/L
same,MIC,K. pneumoniae ATCC 27736,>100 mg/L
same,MIC,MRSE 2442-05030,12.5 mg/L
same,Minimum inhibitory concentrations (MIC),M. tuberculosis H37Rv; table line r7 (1st of 5 so labelled),6.25 mg/L
same,Minimum inhibitory concentrations (MIC),M. tuberculosis H37Rv; table line r8 (2nd of 5 so labelled),6.25 mg/L
same,Minimum inhibitory concentrations (MIC),M. tuberculosis H37Rv; table line r9 (3rd of 5 so labelled),6.25 mg/L
same,Minimum inhibitory concentrations (MIC),M. tuberculosis H37Rv; table line r10 (4th of 5 so labelled),6.25 mg/L
same,Minimum inhibitory concentrations (MIC),M. tuberculosis H37Rv; table line r11 (5th of 5 so labelled),6.25 mg/L
same,MIC,MRSA 2441-05223,25 mg/L
same,MIC,P. aeruginosa ATCC 27853,>100 mg/L
same,MIC,S. marsascens ATCC 14756,>100 mg/L
same,MIC,MRSE 2442-05047,12.5 mg/L
same,MIC,MRSE 2442-05053,12.5 mg/L
same,MIC,E. faecium ATCC 49224,12.5 mg/L
same,MIC,VRSA 2441-T0044,50 mg/L
same,MIC,P. mirabilis ATCC 4630,>100 mg/L
same,MIC,MRSE 2442-05110,12.5 mg/L
same,MIC,MRSA 2441-05262,25 mg/L
same,MIC,[6],25 mg/L
same,Minimum inhibitory concentrations (MIC),M. bovis BCG Tokyo,6.25 mg/L
"CN[C@H](CC(C)C)C(=O)N[C@H]1C(=O)N[C@@H](CC(N)=O)C(=O)N[C@H]2C(=O)N[C@H]3C(=O)N[C@H](C(=O)N[C@H](C(=O)O)c4cc(O)cc(O)c4-c4cc3ccc4O)[C@H](O)c3ccc(c(Cl)c3)Oc3cc2cc(c3O[C@@H]2O[C@H](CO)[C@@H](O)[C@H](O)[C@H]2O[C@H]2C[C@](C)(N)[C@H](O)[C@H](C)O2)Oc2ccc(cc2Cl)[C@H]1O [VCM, reference compound]",MIC,E. faecalis ATCC 29212,3.13 mg/L
same,MIC,MRSE 2442-05060,1.56 mg/L
same,MIC,MRSA 2441-05104,0.78 mg/L
same,MIC,MRSA 2441-05254,1.56 mg/L
same,MIC,[2],>100 mg/L
same,MIC,VRSA 2441-T0041,3.13 mg/L
same,MIC,MRSA 2441-05129,0.78 mg/L
same,MIC,[3],1.56 mg/L
same,MIC,[4],0.78 mg/L
same,MIC,E. coli ATCC 25922,>100 mg/L
same,MIC,S. aureus ATCC 29213,0.78 mg/L
same,MIC,[5],>100 mg/L
same,MIC,MRSA 2441-05112,0.78 mg/L
same,MIC,MRSE 2442-05118,1.56 mg/L
same,MIC,K. pneumoniae ATCC 27736,>100 mg/L
same,MIC,MRSE 2442-05030,3.13 mg/L
same,MIC,MRSA 2441-05223,0.78 mg/L
same,MIC,P. aeruginosa ATCC 27853,>100 mg/L
same,MIC,S. marsascens ATCC 14756,>100 mg/L
same,MIC,MRSE 2442-05047,1.56 mg/L
same,MIC,MRSE 2442-05053,1.56 mg/L
same,MIC,E. faecium ATCC 49224,3.13 mg/L
same,MIC,VRSA 2441-T0044,6.25 mg/L
same,MIC,P. mirabilis ATCC 4630,>100 mg/L
same,MIC,MRSE 2442-05110,1.56 mg/L
same,MIC,MRSA 2441-05262,0.78 mg/L
same,MIC,[6],1.25 mg/L

# Source: patent publication US8884061B2, “Compositions and methods of use of electron transport system inhibitors” (priority 2006, dated 2014)
